The values below come from patent US8927563B2, “Kinase inhibitor” (Respivert Limited, priority 2013, dated 2015).

Each structure is given as a SMILES string.

Series [1] deals with p38 MAPKα (Homo sapiens (Human), UniProt Q16539). As to the kind of experiment: KINOMEscan dissociation constant, p38 MAPKα. The series is classed as binding. Here is the method: (§1) Kinase enzyme binding activities of compounds disclosed herein may be determined using a proprietary assay which measures active site-directed competition binding to an immobilized ligand (Fabian, M. A. et al., Nature Biotechnol., 2005, 23:329-336). These assays may be conducted by DiscoverX (formerly Ambit; San Diego, Calif.). The percentage inhibition produced by incubation with a test compound may be calculated relative to the non-inhibited control.

For series [2], the target named is B-Raf (Homo sapiens (Human), UniProt P15056). Description: KINOMEscan binding of B-Raf to standard ligand. As for the experimental part: as §1
Series [3] has as its target B-Raf (V600E) (Homo sapiens (Human), UniProt P15056, V600E). As to the kind of experiment: KINOMEscan binding of B-Raf (V600E) to standard ligand. Here is the method:
as §1

In series [4] the target is c-Src (Homo sapiens (Human), UniProt P12931). Description: c-Src enzyme inhibition, Z-LYTE FRET. The series is classed as biochemical. As for the experimental part: The enzyme inhibitory activities of compounds disclosed herein are determined by FRET using synthetic peptides labelled with both donor and acceptor fluorophores (Z-LYTE, Invitrogen Ltd., Paisley, UK).
The inhibitory activities of the compound of the invention against c-Src and Syk enzymes (Invitrogen) are evaluated in a similar fashion to that described hereinabove. The relevant enzyme (3000 ng/mL or 2000 ng/mL respectively, 2.5 μL) is incubated with the test compound (either 1 μg/mL, 0.1 μg/mL, 0.01 μg/mL, or 0.001 μg/mL, 2.5 μL each) for 2 hr at RT. The FRET peptides (8 μM, 2.5 μL) and appropriate ATP solutions (2.5 μL, 800 μM for c-Src, and 60 μM ATP for Syk) are then added to the enzymes/compound mixtures and the mixture incubated for 1 hr. Development reagent (protease, 5 μL) is added for 1 hr prior to detection in a fluorescence microplate reader (Varioskan® Flash, ThermoFisher Scientific).
In all cases, the site-specific protease cleaves non-phosphorylated peptide only and eliminates the FRET signal. Phosphorylation levels of each reaction are calculated using the ratio of coumarin emission (donor) over fluorescein emission (acceptor), for which high ratios indicate high phosphorylation and low ratios indicate low phosphorylation levels.

Series [5] has as its system d-U937 cells. Description: Accumulation of β catenin in d-U937 cells. The format is cell-based, human. To be noted: normalised to Reference compound at 1 μg/mL. As for the experimental part: U937 cells, a human monocytic cell line, are differentiated into macrophage-type cells by incubation with PMA (100 ng/mL) for between 48 to 72 hr. The cells are then incubated with either final concentrations of test compound or vehicle for 18 hr. The induction of β-catenin by the test compound is stopped by replacing the media with 4% formaldehyde solution. Endogenous […] is neutralised by incubating with quenching buffer (100 μL, 0.1% sodium azide, 1% H2O2 in PBS with 0.05% Tween-20) for 20 min. The cells are washed with washing buffer (200 μL; PBS containing 0.05% Tween-20) and incubated with blocking solution (200 μL; 5% milk in PBS) for 1 hr, re-washed with washing buffer (200 μL) and then incubated overnight with anti-β-catenin antibody solution (50 μL) in 1% BSA/PBS (BD, Oxford, UK).
After washing with washing buffer (3×200 μL; PBS containing 0.05% Tween-20), cells are incubated with a HRP-conjugated secondary antibody solution (100 μL) in 1% BSA/PBS (Dako, Cambridge, UK) and the resultant signal is determined colourimetrically (OD: 450 nm with a reference wavelength of 655 nm) using TMB substrate (50 μL; R&D Systems, Abingdon, UK). This reaction is stopped by addition of 1N H2SO4 solution (50 μL). Cells are then washed with washing buffer and 2% crystal violet solution (50 μL) is applied for 30 min. After washing with washing buffer (3×200 μL), 1% SDS (100 μL) is added to each well and the plates are shaken lightly for 1 hr prior to measuring the absorbance at 595 nm (Varioskan® Flash, Thermo-Fisher Scientific).
The measured OD450-655 readings are corrected for cell number by dividing the OD450-655 by the OD595 readings.

For series [6], the system named is adoptive transfer colitis. Description: Adoptive transfer mouse model. The series is classed as in vivo, mice. Here is the method:
On Study day 0, female Balb/C mice are terminated and spleens obtained for CD45RB^high cell isolation (Using SCID IBD cell Separation protocol). Approximately 4×10^5 cells/mL CD45RB^high cells are then injected intraperitoneally (100 μL/mouse) into female SCID animals. On study day 14, mice are weighed and randomized into treatment groups based on body weight. On Day 14, the compound is administered BID, via oral gavage, in a vehicle comprising a defined mixture of corn oil (32.5%), transcutol (20%), maisine (12.5%) and cremophor ELP (35%) at the dose levels outlined below in Tables 6a and 6b and a dose volume of 5 mL/kg. Treatment continues until study day 42, at which point the animals are necropsied 4 hours after the morning administration. The colon length and weight are recorded and used as a secondary endpoint in the study as a measurement of colon oedema. The colon is then divided into six cross-sections, four of which are used for histopathology scoring (primary endpoint) and two are homogenised for cytokine analysis. Data shown is the % inhibition of the induction window between naïve animals and vehicle animals, where higher inhibition implies closer to the non-diseased, naïve, phenotype.

Series [7] can be described thus: Hydrolytic stability study. The series is classed as physicochemical. The note with it: buffer, 1 mg/mL. Here is the method:
Chemical stability of Compound I was assessed in a mixture of DMSO and water (3:1) at a test compound concentration of 1 mg/mL
Sample Preparation • A 1.0 mg sample of test compound was dissolved in 750 μL of DMSO. Water (250 μL) was added slowly, ensuring no precipitation occurred.
Recording Stability • A 50 μL aliquot of the test solution was removed and analysed in duplicate by 5 μL HPLC injections. The peak area for the test compound was recorded following manual integration of the corresponding UV trace. • The test solution was heated to 60° C., with stirring, and 50 μL aliquots removed for HPLC analysis at 5 and 24 h timepoints.

Sequence of B-Raf (P15056 whole entry): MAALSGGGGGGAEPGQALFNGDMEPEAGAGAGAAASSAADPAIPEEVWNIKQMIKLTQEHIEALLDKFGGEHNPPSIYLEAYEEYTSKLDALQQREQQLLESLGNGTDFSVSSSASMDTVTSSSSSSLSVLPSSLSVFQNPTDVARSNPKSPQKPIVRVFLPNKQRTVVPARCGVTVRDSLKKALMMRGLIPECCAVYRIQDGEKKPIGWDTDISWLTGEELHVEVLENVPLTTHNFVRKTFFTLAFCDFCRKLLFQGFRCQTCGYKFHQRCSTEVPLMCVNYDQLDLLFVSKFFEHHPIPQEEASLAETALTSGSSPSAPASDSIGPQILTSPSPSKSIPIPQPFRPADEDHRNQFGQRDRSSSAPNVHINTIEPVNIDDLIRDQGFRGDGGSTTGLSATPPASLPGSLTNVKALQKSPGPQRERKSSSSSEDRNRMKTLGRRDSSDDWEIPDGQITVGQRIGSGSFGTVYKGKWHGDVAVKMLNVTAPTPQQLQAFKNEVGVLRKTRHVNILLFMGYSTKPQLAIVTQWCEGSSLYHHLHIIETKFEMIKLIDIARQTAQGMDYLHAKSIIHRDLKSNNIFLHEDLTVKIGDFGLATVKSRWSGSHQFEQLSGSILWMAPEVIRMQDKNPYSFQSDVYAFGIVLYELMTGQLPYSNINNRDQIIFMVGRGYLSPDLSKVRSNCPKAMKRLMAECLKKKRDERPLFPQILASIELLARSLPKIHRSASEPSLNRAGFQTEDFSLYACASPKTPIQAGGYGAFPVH
Sequence of B-Raf (V600E) (P15056 whole entry V600E): as the sequence (P15056 whole entry) above, with V600E counted along it
Sequence of p38 MAPKα (Q16539 whole entry, looked up): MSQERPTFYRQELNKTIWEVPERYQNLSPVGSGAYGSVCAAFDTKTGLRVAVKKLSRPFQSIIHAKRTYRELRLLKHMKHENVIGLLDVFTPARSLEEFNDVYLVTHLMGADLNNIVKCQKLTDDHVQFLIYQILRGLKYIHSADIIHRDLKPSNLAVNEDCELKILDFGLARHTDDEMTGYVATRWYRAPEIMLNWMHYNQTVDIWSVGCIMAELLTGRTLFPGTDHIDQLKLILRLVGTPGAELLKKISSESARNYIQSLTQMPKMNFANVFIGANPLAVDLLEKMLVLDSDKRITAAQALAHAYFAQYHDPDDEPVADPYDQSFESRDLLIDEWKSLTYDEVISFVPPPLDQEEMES
Sequence of c-Src (P12931 whole entry, looked up): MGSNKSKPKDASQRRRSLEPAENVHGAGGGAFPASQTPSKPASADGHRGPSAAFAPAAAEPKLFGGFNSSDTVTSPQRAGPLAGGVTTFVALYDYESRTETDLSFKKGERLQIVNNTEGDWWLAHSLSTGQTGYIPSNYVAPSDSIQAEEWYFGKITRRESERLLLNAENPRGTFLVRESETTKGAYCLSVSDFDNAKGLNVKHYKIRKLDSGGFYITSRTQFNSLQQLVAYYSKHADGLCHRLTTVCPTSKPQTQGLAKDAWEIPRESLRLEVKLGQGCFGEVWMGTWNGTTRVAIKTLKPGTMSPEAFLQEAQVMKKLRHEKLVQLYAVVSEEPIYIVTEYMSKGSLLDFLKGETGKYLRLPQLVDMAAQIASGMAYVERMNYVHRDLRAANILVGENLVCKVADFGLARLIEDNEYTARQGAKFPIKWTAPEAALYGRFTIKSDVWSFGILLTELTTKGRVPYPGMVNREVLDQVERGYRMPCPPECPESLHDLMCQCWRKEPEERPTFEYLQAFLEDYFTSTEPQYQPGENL

Regarding `C#Cc1cc(Nc2nccc(Oc3ccc(NC(=O)Nc4cc(C(C)(C)C)cc(NS(C)(=O)=O)c4OC)c4ccccc34)n2)cc(C(=O)NCCOCCOCCOC)c1` [Compound I, 3-((4-((4-(3-(5-(tert-Butyl)-2-methoxy-3-(methylsulfonamido)phenyl)ureido)naphthalen-1-yl)oxy)pyrimidin-2-yl)amino)-5-ethynyl-N-(2-(2-(2-methoxyethoxy)ethoxy)ethyl)benzamide], the Kd (usually the constant that tells how readily two partners part at equilibrium) in series [1] amounted to 9 nM. In addition, the “effect on binding of B-Raf to its standard ligand” value in series [2] was “did not have any significant effect”. Further, in series [3], the “effect on binding of B-Raf (V600E) to its standard ligand” value is recorded as “did not have any significant effect”. Further, inhibition in series [4] was half-maximal at 24 nM (IC50). Also, the results for the “% β-catenin induction” value in series [5] (1 μg/mL), in series [5] (5 μg/mL) and in series [5] (10 μg/mL) were 21%, 14% and 26%, respectively. In addition, in series [6] (3 mg/kg), the “IFNγ level in colon tissue” value amounted to 10.8 ± 3.3 pg/mL. The “IL-8 level in colon tissue” value in series [6] (3 mg/kg) was found to be 70.8 ± 22.8 pg/mL. The “Colon weight:length” value is listed as 0.024 ± 0.003 in series [6] (3 mg/kg BID oral); 0.033 ± 0.002 in series [6] (additional study, 0.03 mg/kg); 0.041 ± 0.005 in series [6] (additional study, 0.3 mg/kg); 0.034 ± 0.003 in series [6] (additional study, 3 mg/kg). The “% Inhibition of induction window between naïve and vehicle animals” value in series [6] (3 mg/kg BID oral, colon weight:length) was 90%. The “% Parent Remaining” value in series [7] (0 h), in series [7] (5 h) and in series [7] (24 h) was 100% each time.
